Our source for the Ki values is BindingDB's records for doi:10.1073/pnas.88.17.7491 (Duke University, 1991).

This test deals with D(1A) dopamine receptor (Homo sapiens, UniProt P21728).

The structures appear in SMILES notation.

D(1A) dopamine receptor, sequence (P21728 whole entry): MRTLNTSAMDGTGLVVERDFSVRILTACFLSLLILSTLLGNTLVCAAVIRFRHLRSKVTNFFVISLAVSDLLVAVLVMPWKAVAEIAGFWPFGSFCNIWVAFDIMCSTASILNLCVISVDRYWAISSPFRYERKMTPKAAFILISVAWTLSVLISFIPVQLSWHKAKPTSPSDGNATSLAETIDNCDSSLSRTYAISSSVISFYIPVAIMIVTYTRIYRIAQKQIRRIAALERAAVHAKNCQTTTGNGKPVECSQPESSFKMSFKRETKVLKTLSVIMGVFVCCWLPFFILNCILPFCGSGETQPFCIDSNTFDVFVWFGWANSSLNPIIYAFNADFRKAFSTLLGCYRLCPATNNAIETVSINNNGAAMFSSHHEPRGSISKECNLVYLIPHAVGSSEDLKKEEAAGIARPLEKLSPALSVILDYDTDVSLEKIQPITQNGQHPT

Take `OCCC1CCN(CCC=C2c3ccc(F)cc3Sc3ccc(C(F)(F)F)cc32)CC1` [CAS_60197-32-2]: affinity was put at a Ki of 0.65 nM.

`CN1CCN(C2=Nc3cc(F)ccc3Cc3ccccc32)CC1`: the Ki was 75 nM.

As for `O=C(O)c1ccccc1C(=O)Nc1cccc2ccccc12` [NPA,(+)], the inhibitory constant (Ki) is 1540 nM.

As usually defined, the Ki is the dissociation constant of the complex between target and ligand, obtained from inhibition or displacement. A higher Ki goes with lower affinity.
